“And” between values parts separate entries of the source, which are not always exact repeats. Equal values may be shown once. Numbers after ± are expanded uncertainties.
Columns and labels:
[1] = refractive index (Na D-line) (dimensionless); xn = mol fraction of the nth substance listed; conditions: 101.3 kPa, Liquid, Standard Abbe refractometry
[2] = xn = mol fraction of the nth substance listed; conditions: 101.3 kPa, Liquid; for viscosity: Capillary tube (Ostwald / Ubbelohde) method; for speed of sound: Linear variable-path acoustic interferometer; for mass density: Pycnometric method
[3] = refractive index (Na D-line) (dimensionless); conditions: 101.33 kPa, Liquid, Standard Abbe refractometry
[4] = 101.3 kPa, Liquid; for viscosity: Capillary tube (Ostwald / Ubbelohde) method; for speed of sound: Linear variable-path acoustic interferometer; for mass density: Pycnometric method

CCCCCC [hexane] + C1COCCO1
x2 = 0
Conditions	mass density, 298.15 K [kg/m3]	mass density, 303.15 K [kg/m3]	mass density, 308.15 K [kg/m3]	refractive index, 298.15 K	refractive index, 303.15 K	refractive index, 308.15 K	speed of sound, 298.15 K [m/s]	viscosity, 298.15 K [mPa·s]	viscosity, 303.15 K [mPa·s]	viscosity, 308.15 K [mPa·s]
[1]	–	–	–	1.3728 ± 0.0011	1.3698 ± 0.0011	1.367 ± 0.0011	–	–	–	–
[2]	654.8 ± 0.4	649.7 ± 0.4	644.8 ± 0.4	–	–	–	1083 ± 3	0.315 ± 0.003	0.299 ± 0.003	0.286 ± 0.003

OCCO [1,2-ethanediol]
Conditions	mass density, 298.15 K [kg/m3]	mass density, 303.15 K [kg/m3]	mass density, 308.15 K [kg/m3]	refractive index, 298.15 K	refractive index, 303.15 K	refractive index, 308.15 K	speed of sound, 298.15 K [m/s]	viscosity, 298.15 K [mPa·s]	viscosity, 303.15 K [mPa·s]	viscosity, 308.15 K [mPa·s]
[3]	–	–	–	1.4307 ± 0.0011	1.4269 ± 0.0011	1.4246 ± 0.0011	–	–	–	–
[4]	1111.3 ± 0.6	1107.3 ± 0.6	1103.5 ± 0.6	–	–	–	1659 ± 3	12.62 ± 0.09	9.618 ± 0.066	7.539 ± 0.053

CCCCN(CCCC)CCCC [tributylamine]
Conditions	mass density, 298.15 K [kg/m3]	mass density, 303.15 K [kg/m3]	mass density, 308.15 K [kg/m3]	refractive index, 298.15 K	refractive index, 303.15 K	refractive index, 308.15 K	speed of sound, 298.15 K [m/s]	viscosity, 298.15 K [mPa·s]	viscosity, 303.15 K [mPa·s]	viscosity, 308.15 K [mPa·s]
[3]	–	–	–	1.4274 ± 0.0011	1.4251 ± 0.0011	1.4226 ± 0.0011	–	–	–	–
[4]	774.4 ± 0.4	770.1 ± 0.4	766.2 ± 0.4	–	–	–	1261 ± 3	1.36 ± 0.011	1.221 ± 0.01	1.125 ± 0.009

C1COCCO1 [1,4-dioxane] + CCCCN(CCCC)CCCC
x1 = 1
Conditions	mass density, 298.15 K [kg/m3]	mass density, 303.15 K [kg/m3]	mass density, 308.15 K [kg/m3]	refractive index, 298.15 K	refractive index, 303.15 K	refractive index, 308.15 K	speed of sound, 298.15 K [m/s]	viscosity, 298.15 K [mPa·s]	viscosity, 303.15 K [mPa·s]	viscosity, 308.15 K [mPa·s]
[1]	–	–	–	1.4201 ± 0.0011	1.417 ± 0.0011	1.4143 ± 0.0011	–	–	–	–
[2]	1027.6 ± 0.6	1021.9 ± 0.6	1016.2 ± 0.6	–	–	–	1343 ± 3	1.166 ± 0.009	1.069 ± 0.008	0.984 ± 0.008

C1COCCO1 [1,4-dioxane]
Conditions	mass density, 298.15 K [kg/m3]	mass density, 303.15 K [kg/m3]	mass density, 308.15 K [kg/m3]	refractive index, 298.15 K	refractive index, 303.15 K	refractive index, 308.15 K	speed of sound, 298.15 K	viscosity, 298.15 K [mPa·s]	viscosity, 303.15 K [mPa·s]	viscosity, 308.15 K [mPa·s]
[3]	–	–	–	1.4201 ± 0.0011	1.417 ± 0.0011	1.4143 ± 0.0011	–	–	–	–
[4]	1027.6 ± 0.6	1021.9 ± 0.6	1016.2 ± 0.6	–	–	–	1347 ± 3 m/s and 1343 ± 3 m/s	1.166 ± 0.009	1.069 ± 0.008	0.984 ± 0.008

CCN(CC)CC [triethylamine]
Conditions	mass density, 298.15 K [kg/m3]	mass density, 303.15 K [kg/m3]	mass density, 308.15 K [kg/m3]	refractive index, 298.15 K	refractive index, 303.15 K	refractive index, 308.15 K	speed of sound, 298.15 K [m/s]	viscosity, 298.15 K [mPa·s]	viscosity, 303.15 K [mPa·s]	viscosity, 308.15 K [mPa·s]
[3]	–	–	–	1.3983 ± 0.001	1.3955 ± 0.001	1.3926 ± 0.001	–	–	–	–
[4]	723.1 ± 0.2	718.5 ± 0.3	713.6 ± 0.3	–	–	–	1127 ± 2	0.363 ± 0.003	0.347 ± 0.003	0.33 ± 0.003

C1COCCO1 [1,4-dioxane] + CCN(CC)CC
x1 = 1
Conditions	mass density, 298.15 K [kg/m3]	mass density, 303.15 K [kg/m3]	mass density, 308.15 K [kg/m3]	refractive index, 298.15 K	refractive index, 303.15 K	refractive index, 308.15 K	speed of sound, 298.15 K [m/s]	viscosity, 298.15 K [mPa·s]	viscosity, 303.15 K [mPa·s]	viscosity, 308.15 K [mPa·s]
[1]	–	–	–	1.4201 ± 0.0011	1.417 ± 0.0011	1.4143 ± 0.0011	–	–	–	–
[2]	1027.6 ± 0.6	1021.9 ± 0.6	1016.2 ± 0.6	–	–	–	1343 ± 3	1.166 ± 0.009	1.069 ± 0.008	0.984 ± 0.008

OCCO [1,2-ethanediol] + C1COCCO1
x2 = 0
Conditions	mass density, 298.15 K [kg/m3]	mass density, 303.15 K [kg/m3]	mass density, 308.15 K [kg/m3]	refractive index, 298.15 K	refractive index, 303.15 K	refractive index, 308.15 K	speed of sound, 298.15 K [m/s]	viscosity, 298.15 K [mPa·s]	viscosity, 303.15 K [mPa·s]	viscosity, 308.15 K [mPa·s]
[1]	–	–	–	1.4307 ± 0.0011	1.4269 ± 0.0011	1.4246 ± 0.0011	–	–	–	–
[2]	1111.3 ± 0.6	1107.3 ± 0.6	1103.5 ± 0.6	–	–	–	1659 ± 3	12.62 ± 0.09	9.618 ± 0.066	7.539 ± 0.053

CCCCCC [hexane]
Conditions	mass density, 298.15 K [kg/m3]	mass density, 303.15 K [kg/m3]	mass density, 308.15 K [kg/m3]	refractive index, 298.15 K	refractive index, 303.15 K	refractive index, 308.15 K	speed of sound, 298.15 K [m/s]	viscosity, 298.15 K [mPa·s]	viscosity, 303.15 K [mPa·s]	viscosity, 308.15 K [mPa·s]
[3]	–	–	–	1.3728 ± 0.0011	1.3698 ± 0.0011	1.367 ± 0.0011	–	–	–	–
[4]	654.8 ± 0.4	649.7 ± 0.4	644.8 ± 0.4	–	–	–	1083 ± 3	0.315 ± 0.003	0.299 ± 0.003	0.286 ± 0.003

Reference: the NIST ThermoML archive (doi:10.1021/je030107c)
